{"source": "patent US11261189B2", "about": "“Substituted 2,4 diamino-quinoline as new medicament for fibrosis, autophagy and cathepsins B (CTSB), L (CTSL) and D (CTSD) related diseases” (Genoscience Pharma, priority 2018, dated 2022)", "key": {"[1]": {"tested_on": "cathepsins B and L (CTSB/L)", "assay": "Overall cathepsins B and L (CTSB/L) peptidase activity in lysates of treated HepG2 cells (Z-FR-AMC substrate)", "assay_type": "cell-based", "conditions": "for CTSB/L activity versus NT: 6 hours of treatment", "procedure": "Lysosomal functions was investigated in a hepatocellular carcinoma (HCC) cell line HepG2 after 6 hours and 24 hours of treatment with compound 2-3 (the hydrochloride salt form of compound 2-2) using functional assays of some lysosomal enzymes activity: two cysteine proteinases: cathepsin B (CTSB) and cathepsin L (CTSL), and one aspartic proteinase: cathepsin D (CTSD). Two sets of three concentrations of compound 2-3 (1 μM, 2 μM, and 4 μM for 6 hours, and 0.5 μM, 1 μM and 2 μM for 24 hours) were tested at least in triplicate and four independent experiments were performed. Salinomycin (7.5 μM for 6 hours and 24 hours) was used as a positive control.\nThe HepG2 cell line was maintained in DMEM (Dulbecco's Modified Eagle Media) high glucose (Cat #L0103-500, Dutscher) containing 1% penicillin-streptomycin (Cat #P06-07100, Dutscher) and 10% FBS (Fetal Bovine Serum) (Cat #11543407, Life Technologies). Cells were cultured at 37° C. with 5% CO2.\nThe day before the experiment, 6-well plates (Cat #353046, Dutscher) with 250,000 cells in 2.7 mL of medium per well were prepared.\nCompound 2-3 was dissolved with filtrated H2O mQ to make a 10 mM stock solution and serial working solutions (10× solutions) were prepared with the diluent (=culture medium with 0.4% H2O mQ) at 5 μM, 10 μM, 20 μM and 40 μM: the “dilution 1” is made from the 10 mM stock solution in the culture medium and the following serial dilutions were made in the diluent to maintain a constant percentage of H2O.\nSalinomycin [CAS 53003-10-4] was used as positive control and was dissolved with methanol to make a 10 mM stock solution and a 10× solution at 75 μM was prepared with the culture medium.\n300 μL of compound 2-3 10× solutions (solutions at 10 μM, 20 μM and 40 μM for 6 hours of treatment and solutions at 5 μM, 10 μM and 20 μM for 24 hours of treatment) or 300 μL of diluent (=non-treated (NT) condition) or 300 μL of Salinomycin 10× solution were dispensed in the appropriate wells (4 wells/condition). After cells treatment, 6-well plates were returned to incubator for 6 hours or 24 hours.\nAfter 6 hours or 24 hours of cells treatment, the medium was removed from each well. The cells were carefully rinsed with PBS (phosphate-buffered saline, Cat #L0615-500, Dutscher) and detached with 500 μL per well of a trypsin solution. After 5 min of trypsin (Cat #L0930-100, Dutscher) incubation at 37° C., 800 μL of medium was added per well and transferred to a 1.5 mL tube. Then, 800 μL of PBS was used to rinse each well and the corresponding solution was pooled in each corresponding 1.5 mL tube. […] Total protein concentration was assessed using the Bradford reagent (Cat #B6916-500ML, Sigma-Aldrich) and cellular lysates were stored at −80° C. until catalytic activity measurement. […]"}, "[2]": {"tested_on": "diethyl nitrosamine (DEN) cirrhotic rat model of liver fibrosis", "assay": "DEN induced cirrhosis in rats, study 1: Sirius red quantification of liver fibrosis", "assay_type": "in vivo", "conditions": "6 weeks after 14 weeks DEN", "from_the_text": "This animal model allows developing an extensive liver fibrosis, leading to a compensated liver cirrhosis with a multifocal hepatocarcinoma (HCC) after 14 weeks of induction (Schiffer, E. et al. Hepatology 2005 (41), 307-314). The DEN cirrhotic rat animal model was used here as a specific animal model of liver fibrosis.\nForty two Fisher 344 male rat (obtained from Charles River Laboratories France, including spare animals), weighting approximately 280 g at the start of the study, were randomized in 5 groups of 8 (groups 1, 2, 3 and 5) or 6 (group 4) animals and housed with 3 animals per cage, given free access to food and water and allowed to acclimate for at least 5 days prior to test initiation.\nThe DEN cirrhotic rat model was obtained after 14 weekly intraperitoneal injections of DEN (intra-peritoneal injections (i.p.) of DEN at 50 mg/kg/week). The animals were then treated according to Table 9 during 6 weeks. In this in vivo experiment, the anti-fibrotic activity of compound 2-3 was evaluated in liver fibrosis animal model, alone or in combination with Sorafenib (a multikinase inhibitor of Raf-1, B-Raf, VEGFR-2, VEGFR3, PDGFRβ, Flt3 and c-Kit). After 6 weeks of treatment, all animals were sacrificed using CO2 and rat livers were collected for analysis. The quantification of the liver fibrotic tissue was evaluated by Sirius red staining of rat liver sections.\nGroup 1 contained 8 animals which were daily dosed (q.d.) by oral gavage (per os, p.o.) with the vehicle during 6 weeks.\nGroup 2 contained 8 animals which were daily dosed (q.d.) by oral gavage (per os, p.o.) with Sorafenib at 10 mg/kg/day during 6 weeks.\nGroup 3 contained 8 animals which were daily dosed (q.d.) by oral gavage (per os, p.o.) with compound 2-3 at 15 mg/kg/day during 6 weeks.\nGroup 4 contained 6 animals which were daily dosed (q.d.) by oral gavage (per os, p.o.) with compound 2-3 at 15 mg/kg/day in combination with Sorafenib at 10 mg/kg/day during 6 weeks.\nGroup 5 contained 8 animals which were daily dosed (q.d.) by oral gavage (per os, p.o.) with compound 2-3 at 30 mg/kg/day during 6 weeks. […]"}}, "note": "Where a name gives a salt, the structure may show the parent alone.", "data": [{"smiles": "CC(C)(C)NC1CCN(c2cc(NCc3ccc(Cl)cc3)nc3ccccc23)CC1", "note": "[2-3, 2-(4-chlorobenzylamino)-4-(4-tert-butylaminopiperidin-1-yl)-quinoline Hydrochloride Salt]", "values": [{"measurement": "CTSB/L activity versus NT", "setting": "[1]; HepG2, 2 μM", "result": 78.0, "unit": "%"}, {"measurement": "CTSB/L activity versus NT", "setting": "[1]; HepG2, 4 μM", "result": 55.3, "unit": "%"}, {"measurement": "inhibition of cathepsins B and L (CTSB/L) compare to the control", "setting": "[1]; HepG2, 2 μM, 4 μM for 6 hours and 1 μM, 2 μM for 24 hours, p<0.05", "result": "statistically significant"}, {"measurement": "reduction of the level of collagen fibers deposition (Sirius red) compared to the control group", "setting": "[2]; group 3: 15 mg/kg/day p.o. q.d., p<0.05", "result": 41.0, "unit": "%"}, {"measurement": "reduction of the level of collagen fibers deposition (Sirius red) compared to the control group", "setting": "[2]; group 5: 30 mg/kg/day p.o. q.d., p=0.01", "result": 45.3, "unit": "%"}]}]}
